What all share (type): cell-based
The test system of assay [1] is CD3+CD25+ cells in human PBMC. Description: T lymphocyte activation (CD3+CD25+) in PHA-stimulated PBMC of asthma patients (Example 6). To be noted: PHA 50 μg/ml, 24 hours; 10^−7 M. The method, then:
Experiments were carried out to determine whether formulations based on the platelet activating factor receptor (PAFR) antagonist and free radical scavenger Ginkgolide B (GB) in combination with the antioxidant carotenoid astaxanthin (ASX) suppress T cell activation in the same dose range as two commonly-used antihistamines: cetirizine dihydrochloride (CTZ/Zyrtec) and azelastine ([…]). […] Results are reported as stimulation indices (SI) of % CD3+CD25+ cells in cultures treated with PHA alone to % CD3+CD25+ cells in each drug-supplemented culture. […] Subjects for this study included 12 patients diagnosed with atopic asthma, 7 male and 5 female, ranging in age from 21 to 40 years (mean 28±1.8 years). Disease duration ranged from 2 to 12 years. Atopy was defined on the basis of one or more positive skin prick tests to a range of 20 allergens. None of the patients had received systemic therapy for at least 6 weeks prior to blood collection. The mean serum IgE was 335 (170-480) IU/ml. Venous blood for each subject was collected in polyethylene tubes containing EDTA during a one hour morning time interval. PBMC were separated by Ficoll-paque (Pharmacia, Uppsala, Sweden) density gradient centrifugation. Cells were washed and suspended in RPMI 1640 medium (Gibco BRL, Gaithersburg, Md.) at density of 1×10^6 cells/ml. PBMC were stimulated with 50 μg/ml Phytohemaglutinin (PHA) (Sigma Immunopharmaceuticals, St. Lous Mo.), or PHA plus 10^-8-10^-5 M astaxanthin (Natural Alternatives International (NAI) Inc., San Marcos Calif.); or ginkgolide B 10^-8-10^-6 M (NAI San Marcos Calif.); or selected combinations of ASX plus GB. Comparison of ASX and GB effects on T cell activation were made with two other pharmacological agents with anti-asthmatic properties by treating cells with 10^-7-10^-4 M cetirizine dihydrochloride (Pfizer Pharmaceuticals, Norwich Conn.); or 10^-7-10^-4 M azalestine hydrochloride (Wallace Pharmaceuticals, Somerset N.J.), followed by evaluation of cultures for the same biological endpoints as ASX/GB-treated cells. Each reagent was added at the outset of a 24 hours culture period, followed by harvest of cellular fraction for immunophenotyping studies. […] Two-color Flow cytometry was conducted using a Coulter Epics XL automated flow cytometer (Coulter Scientific, Hialeah, Fla., USA). Isotypic controls for the monoclonal antibodies (mAb) used to detect antigens of interest were established for each cell preparation. Positive analysis regions for cells expressing specific surface markers were set against controls and specific binding of fluorophore-conjugated mAb was analyzed by cytofluorography according to standard methods recommended by the manufacturer. Lymphocyte subpopulations were identified by position on forward and side scatter plots and live-gated. Expression of each antigen was reported as percentage cells positive for a particular T cell subpopulation defined by expression of CD3 (T lymphocyte marker) plus CD25, plus or minus standard error. Statistical analysis was performed using an independent t-test. All statistical analyses were performed using the SPSS for Windows statistical package (Norusis/SPSS, Inc.). […] The capacity of formulations evaluated in this study to suppress immune activation was measured as a stimulation index (SI), defined as the ratio of […].

In assay [2] the test system is CD3+HLA-DR+ lymphocytes in human PBMC. Description: PHA-mediated induction of CD3+HLA-DR+ lymphocytes in human PBMC (Example 8). To be noted: PHA 50 μg/ml, 24 hours. The method, then:
Cells from 3-12 asthma patients were cultured 24 hours with 50 μg/ml PHA. PBMC evaluated by 2-color flow cytometry were gated for CD3+ and analyzed for CD3+CD25+ or CD3+HLA-DR+ as a percentage of the CD3+ population. Results are reported as stimulation indices (SI) calculated as the ratio of % CD3+CD25+ cells or % CD3+HLA-DR+ cells in fully-stimulated cultures to % CD3+CD25+ or % CD3+HLA-DR+ respectively in cells treated with PHA plus ASX, GB, or combinations thereof.

Another assay relates to TNF-α. Description: TNF-α expression by PHA-stimulated human PBMC, ELISA of supernatant. To be noted: PHA 50 μg/ml, 24 hours; 10^−6 M. The procedure:
PBMC (2×10^6/ml) from 2 donors were stimulated with 50 μg/ml, PHA; or with astaxanthin (10^−6 M); or with the ginkgolide BN52021 (GB) (10^−4 M); or with a combination of astaxanthin (10^−6 M) plus GB (10^−4 M); or with media. Cells were cultured 24 hours at 37° C., 5% CO2 and analyzed by ELISA for supernatant concentration of TNF-α. Each data point is the mean of triplicate samples.

In the case of `CC1=C(/C=C/C(C)=C/C=C/C(C)=C/C=C/C=C(C)/C=C/C=C(C)/C=C/C2=C(C)C(=O)[C@@H](O)CC2(C)C)C(C)(C)C[C@H](O)C1=O` [astaxanthin, 3,3′-dihydroxy-4,4′-diketo-B-carotene], the “SI (CD3+CD25+)” value in assay [1] came to 0.89±0.06. In addition, the “CD3+HLA-DR+ Stimulation Index” value in assay [2] (10^−4 M) was found to be 0.85 ± 0.18; in assay [2] (10^−5 M), 0.79 ± 0.19; in assay [2] (10^−6 M) it was 0.83 ± 0.23; in assay [2] (10^−7 M) it was 0.71 ± 0.23; in assay [2] (10^−8 M), 0.68 ± 0.16. The TNF-alpha in the assay on TNF-α turned out to be 781.34 pg/mL.

Source of the values: US20060127505A1, “Anti-inflammatory formulations” (priority 2002, published 2006).
